Values of other authors as cited in patent US20110052648A1, “ORAL MODIFIED-RELEASE FORMULATIONS CONTAINING THIAZEPINES” (priority 2008, published 2011).

solubility in water: moderately soluble
Compound: OCCOCCN1CCN(C2=Nc3ccccc3Sc3ccccc32)CC1 [Quetiapine, 11-[4-[2-(2-hydroxyethoxy)ethyl]-1-piperazinyl]dibenzo[b,f][1,4]-thiazepine]
